Patent US5939100A, “Composition for drug delivery comprising nicotine or a derivative thereof and starch microspheres and method for the manufacturing thereof” (Pharmacia and UpJohn AB, priority 1993, dated 1999)
Read-outs that look alike come from different tables or passages of the source.

Assay: Intravenous administration of nicotine in rats (plasma nicotine, pharmacokinetics)
Type: in vivo, rat (male Lewis rats, Lew/Mol)
Settings: rat, 0.15 mg/kg BW
From the text: The plasma values obtained after i.v. administration of nicotine were just like those obtained by intranasal administration analysed for the number of phases.
One phase was recognized corresponding to only one elimination phase.
The model was fitted to the data using weighted least squares algoritm with the weighing factor=1.
The plasma nicotine values as a function of time after i.v. administration of nicotine are shown in the below Table 3 and FIG. 2. Six animals were used in the study. The pharmacokinetic parameters are calculated as described for the data obtained by intranasal administration.

## CN1CCCC1c1cccnc1 (stereo not drawn) [nicotine]
15 minutes after i.v. adm., read-out: Plasma nicotine values, average for 6 rats
  concentration at […]: 47 ng/mL
30 minutes after i.v. adm., read-out: Plasma nicotine values, average for 6 rats
  concentration at 0.5 h: 61 ng/mL
45 minutes after i.v. adm., read-out: Plasma nicotine values, average for 6 rats
  concentration at 0.75 h: 86 ng/mL
60 minutes after i.v. adm., read-out: Plasma nicotine values, average for 6 rats
  concentration at 1 h: 50 ng/mL
75 minutes after i.v. adm., read-out: Plasma nicotine values, average for 6 rats
  concentration at […]: 51 ng/mL
90 minutes after i.v. adm., read-out: Plasma nicotine values, average for 6 rats
  concentration at […]: 38 ng/mL
105 minutes after i.v. adm., read-out: Plasma nicotine values, average for 6 rats
  concentration at 1.75 h: 38 ng/mL
120 minutes after i.v. adm., read-out: Plasma nicotine values, average for 6 rats
  concentration at 2 h: 59 ng/mL
150 minutes after i.v. adm., read-out: Plasma nicotine values, average for 6 rats
  concentration at […]: 36 ng/mL
180 minutes after i.v. adm., read-out: Plasma nicotine values, average for 6 rats
  concentration at 3 h: 22 ng/mL
210 minutes after i.v. adm., read-out: Plasma nicotine values, average for 6 rats
  concentration at 3.5 h: 25 ng/mL
240 minutes after i.v. adm., read-out: Plasma nicotine values, average for 6 rats
  concentration at 4 h: 20 ng/mL
i.v., SIPHAR, read-out: Half-life (Ke line)
  half-life: 2.6 h
i.v., SIPHAR, read-out: Ke, parameter value (converted)
  k el: 7.33e-05 s⁻¹
i.v., trapezoidal rule, read-out: AUC0-.infin. (converted)
  AUC(0-inf): 262 ng·h/mL
